Columns and labels:
[1] = target: L106P hMC4R (Homo sapiens, UniProt P32245, L106P); assay: cAMP based CRE/β-galactosidase reporter gene functional bioassay, L106P hMC4R; assay type: cell-based
[2] = target: WT hMC4R (Homo sapiens, UniProt P32245); assay type: cell-based
WT hMC4R, sequence (P32245 whole entry): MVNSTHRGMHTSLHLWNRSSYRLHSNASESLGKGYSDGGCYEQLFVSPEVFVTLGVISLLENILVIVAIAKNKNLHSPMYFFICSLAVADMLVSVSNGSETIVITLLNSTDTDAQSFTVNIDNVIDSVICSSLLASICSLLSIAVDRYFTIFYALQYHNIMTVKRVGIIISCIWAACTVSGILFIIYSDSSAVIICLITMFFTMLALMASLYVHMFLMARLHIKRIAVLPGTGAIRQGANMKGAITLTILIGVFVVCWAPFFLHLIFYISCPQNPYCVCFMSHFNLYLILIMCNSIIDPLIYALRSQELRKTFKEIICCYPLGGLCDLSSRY

L106P hMC4R, sequence (P32245 whole entry L106P): as the sequence (P32245 whole entry) above, with L106P counted along it

Compound: CC(=O)N[C@@H](Cc1cnc[nH]1)C(=O)N[C@H](Cc1ccccc1)C(=O)N[C@@H](CCCN=C(N)N)C(=O)N1Cc2ccccc2C[C@H]1C(N)=O [EMH4-107, Ac-His-DPhe-Arg-Tic-NH2]
- EC50 [1]: > 100 µM
- EC50 [2]: > 10 µM

Reference: PMC4324447 (Journal of Medicinal Chemistry, 2014)
